The nature of one data set: in vivo. The note with it: Wistar, rat, iv, 1 mg/kg.
A further data set has as its target S1P1 receptor (Homo sapiens, UniProt P21453). Description: 35S-GTPyS binding assay. It counts as biochemical. The note with it: membranes, 90 min at room temperature. How it is done: The effect of the compounds was measured using a 35S-GTPyS binding assay. Briefly, membranes were incubated in a buffer containing 20 mM HEPES pH 7.4, 100 mM NaCl, 10 mM MgCl2, 10µM GDP, 50µg/ml saponin and 0.2% fatty acid-free BSA at various concentrations (0.1nM-10µM) and 0.1nM 35S-GTPyS. 10µM […] was used as 100% maximum efficacy. The assay was incubated for 90 min at room temperature with gentle mixing, and terminated by filtrating the reaction mixture through GF/C filter plates using the Manifold Filtration System. The filters were immediately washed with sodium phosphate pH 7.4 buffers. After drying the filter plates scintillant liquid were added to each well and 35S-GTPyS binding was measured on a Trilux Scintillation Counter.

A short description of data set [1]: Acute hepatotoxicity assay: plasma liver markers (ALT, AST, TBIL) in mice. Type of data set: in vivo, Swiss mice. The note with it: for ALT / AST / TBil: plasma, 24 h after single intraperitoneal administration; for hepatotoxicity: single intraperitoneal administration, liver markers 24 h later, compared to vehicle-treated group. How it is done:
Acute hepatotoxicity assays were performed in Swiss mice. Animals received a single administration of either vehicle, or Fingolimod or a compound of the present invention (compounds from the list indicated previously) by intraperitoneal route. Twenty-four hours later, animals were sacrificed and the levels of liver markers ALT (alanine aminotransferase), AST (aspartate aminotransferase), and TBIL (total bilirubin) in plasma were determined. An increase in liver markers in this model indicates the potential of that compound to cause liver toxicity in humans at lower doses following longer exposures. Table 2: Plasma levels of liver markers of mice 24 h after treatment with either vehicle or test compounds No.142, No.171 or fingolimod.

The test system of a further data set is lymphocytes in blood. The data set can be described thus: Recovery of lymphopenia in rats after a single oral administration. Type of data set: in vivo. Conditions: Wistar rats, single oral dose that caused maximal lymphopenia. How it is done: Test compounds were administered by oral route to Wistar rats at a dose of each compound that caused maximal lymphopenia. At several times after administration, animals were anestesized and blood extracted from retroorbital plexus and collected into heparinized tubes. Total lymphocyte numbers were determined using a Sysmex K-800 haemocytometer. [formula]

SMILES strings stand for the structures.

The values that follow come from EP2455080A1, “S1P1 receptor agonists for use in the treatment of multiple sclerosis” (Almirall, S.A., priority 2010, dated 2012).

As a reminder, the AUC(0-t) is the area under the concentration-time curve up to a stated or last time point. A word on the Cmax: it is the maximum level reached in the sampled fluid or tissue. Usually Tmax stands for the time from dosing to the highest level. By half-life is commonly meant the time in which the quantity being followed falls by half. The low end stands for fast loss, the high end for slow loss. As a reminder, the EC50 is the concentration at which the effect is half-maximal.

Chain of S1P1 receptor (P21453 whole entry): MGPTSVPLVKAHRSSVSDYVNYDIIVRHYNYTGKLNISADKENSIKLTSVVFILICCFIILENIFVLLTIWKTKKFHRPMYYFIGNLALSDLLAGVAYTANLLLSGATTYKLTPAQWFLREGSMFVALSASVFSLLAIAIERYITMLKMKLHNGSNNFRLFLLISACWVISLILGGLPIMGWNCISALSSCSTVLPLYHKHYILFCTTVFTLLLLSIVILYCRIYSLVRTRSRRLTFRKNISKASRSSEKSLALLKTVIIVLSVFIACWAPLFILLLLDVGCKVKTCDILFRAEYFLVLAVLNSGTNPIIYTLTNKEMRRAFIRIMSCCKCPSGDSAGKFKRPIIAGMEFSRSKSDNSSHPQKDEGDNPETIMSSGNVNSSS
Experimental for in vivo: Rats were administered with 1 mg/kg of test compounds by intraveneous route to Wistar rats. Blood samples were collected from retroorbital plexus at several time points after administration and plasma levels of compounds were quantified by MS-HPLC.

As to `Cc1cc(-c2noc(-c3nn(C)c4c3CCC(C)(C)C4)n2)cc(C)c1CCN1CCC(C(=O)O)CC1` [Compound 142, 1-(2-{2,6-dimethyl-4-[5-(1,6,6-trimethyl-4,5,6,7-tetrahydro-1H-indazol-3-yl)-1,2,4-oxadiazol-3-yl]phenyl}ethyl)piperidine-4-carboxylic acid], in “in vivo”, the AUC(0-t) was determined as 2630 ng·h/mL, the Cmax is 824 ng/mL, the Tmax amounted to 6 min and the half-life is 3.5 h. Further, on S1P1 receptor, the EC50 is 8.7 nM. Besides, in data set [1] (100 mg/kg), the ALT was found to be 45 ± 5 IU/L, the AST is 87 ± 9 IU/L and the TBil was 0.3 ± 0.1 mg/dL. In addition, the hepatotoxicity result in data set [1] is reported as “lack of hepatotoxicity”.

On to `Cn1nc(-c2nc(-c3ccc(CCN4CCC(C(=O)O)CC4)c(C(F)(F)F)c3)no2)c2c1CC(C)(C)CC2` [Compound 171, 1-(2-{2-(trifluoromethyl)-4-[5-(1,6,6-trimethyl-4,5,6,7-tetrahydro-1H-indazol-3-yl)-1,2,4-oxadiazol-3-yl]phenyl}ethyl)piperidine-4-carboxylic acid], for which, in “in vivo”, the AUC(0-t) was 6230 ng·h/mL, the Cmax amounted to 986 ng/mL, the time to peak (Tmax) is 6 min and the half-life is 8.2 h. On S1P1 receptor, this compound displayed an EC50 of 18.8 nM. In data set [1] (100 mg/kg), this compound returned an ALT of 42 ± 13 IU/L, an AST of 66 ± 7 IU/L and a TBil of 0.5 ± 0.04 mg/dL. Further, the hepatotoxicity entry in data set [1] is listed as “lack of hepatotoxicity”.

Turning to `CCCCCCCCc1ccc(CCC(N)(CO)CO)cc1` [Fingolimod, reference compound], in “in vivo”, the area under the curve AUC(0-t) worked out at 279 ng·h/mL, the Cmax was 50.5 ng/mL, the Tmax stood at 6 min and the half-life is 26.1 h. In addition, in data set [1] (30 mg/kg), the ALT was 59 ± 62 IU/L, the AST amounted to 354 ± 70 IU/L and the TBil was 0.12 ± 0.01 mg/dL. In addition, in data set [1] (100 mg/kg), the ALT is listed as 355 ± 60 IU/L, the AST is recorded as 589 ± 73 IU/L and the TBil was 0.16 ± 0.02 mg/dL. Moreover, in data set [1], the hepatotoxicity entry is “high hepatotoxicity”. The “time after administration to recover lymphocytes in blood” value with lymphocytes in blood amounted to 144 h.
